Data published in article PMC7534258, “Novel temporin L antimicrobial peptides: promoting self-assembling by lipidic tags to tackle superbugs” (Journal of Enzyme Inhibition and Medicinal Chemistry, 2020).
Values after ≈ are worked out from the molar mass of the structure shown. Where a SMILES comes first, the peptide text is derived from it. [ ]: non-standard residue; d: D form. The star is where a group is joined. Tridecanoyl = CCCCCCCCCCCCC(=O)*; Undecanoyl = CCCCCCCCCCC(=O)*; Heptanoyl = CCCCCCC(=O)*; Orn = NCCC[C@H](N)C(=O)O; Pentanoyl = CCCCC(=O)*

Experiments:
[1] = system: S. aureus ATCC 25923; assay: microbe, parasite or virus in culture
Procedure: (§1) Staphylococcus aureus ATCC 25923, Pseudomonas aeruginosa ATCC 27853 and Klebsiella pneumoniae ATCC BAA-1705 (carbapenemase producer) were obtained from the American Type Culture Collection (Rockville, MD).
(§2) Identification was performed by sub-culturing on Tryptic Soy Agar (TSA, Becton Dickinson) and by biochemical characterisation using the Vitek II system (Biomerieux). The antimicrobial susceptibility testing of all isolates was determined using Vitek II system and results were interpreted according to European Committee on Antimicrobial Susceptibility Testing (EUCAST version 9.0, 2019). P. aeruginosa was cultured in Brain Heart Infusion broth (BHI, OXOID), S. aureus and K. pneumoniae were cultured in Tryptic Soya broth (TSB, OXOID), under aerobic conditions at 37 °C, for 24 h on an orbital shaker at 200 rpm.
(§3) Minimal inhibitory concentrations (MIC) of all the peptides were determined in Mueller–Hinton medium by the broth microdilution assay, following the procedure already described[22]^,[34]. The compounds were added to bacterial suspension in each well yielding a final cell concentration of 1 × 10^6 CFU/ml and a final compound concentration ranging from 0.78 to 100 µM. Negative control wells were set to contain bacteria in Mueller–Hinton broth plus the amount of vehicle (ethanol) used to dilute each compound. Positive controls included vancomycin (2 µg/ml), tobramycin (4 µg/ml), gentamycin (4 µg/ml), and imipenem (8 µg/ml).

[2] = system: K. pneumoniae ATCC BAA-1705; assay: Broth microdilution MIC, reference strain; assay type: cell-based, Klebsiella pneumoniae
Procedure: as §1, §2, §3

[3] = system: P. aeruginosa ATCC 27853; assay: Broth microdilution MIC, reference strain; assay type: cell-based, Pseudomonas aeruginosa; settings: 100% growth inhibition after 16–18 h at 37 °C
Procedure: as §1, §2, §3

[4] = system: Sa1; assay: microbe, parasite or virus in culture; settings: Staphylococcus aureus, MRSA, read-out: Antimicrobial activity (MIC) Sa1
Procedure: (§4) Clinical strains of P. aeruginosa (Pa1, Pa2 and Pa3), K. pneumoniae (KpCR1, KpCR2 and KpCR3), and S. aureus (Sa1, Sa2 and Sa3) were isolated from bloodstream or pulmonary infections, and belong to a collection of bacterial strains established between 2010 and 2018 at the Department of Molecular Medicine and Medical Biotechnologies (University Federico II, Naples) for research use.
as §2, §3

[5] = system: Sa2; assay: microbe, parasite or virus in culture; settings: Staphylococcus aureus, MRSA, read-out: Antimicrobial activity (MIC) Sa2
Procedure: as §4, §2, §3

[6] = system: Sa3; assay: microbe, parasite or virus in culture; settings: Staphylococcus aureus, MRSA, read-out: Antimicrobial activity (MIC) Sa3
Procedure: as §4, §2, §3

[7] = 100% growth inhibition after 16–18 h at 37 °C

Row | SMILES | Antimicrobial activity (MIC) S. aureus ATCC 25923 ([1]; ATCC 25923) [µM] | Antimicrobial activity (MIC) P. aeruginosa ATCC 27853 [3] [µM] | Antimicrobial activity (MIC) K. pneumoniae ATCC BAA-1705 [2, 7] [µM] | Antimicrobial activity (MIC) S. aureus ATCC 25923 [1, 7] [µM] | further results
1 | CCCCC(=O)N[C@@H](Cc1ccccc1)C(=O)N[C@H](C(=O)N1CCC[C@H]1C(=O)N[C@@H](Cc1c[nH]c2ccccc12)C(=O)N[C@@H](Cc1ccccc1)C(=O)N[C@@H](CO)C(=O)N[C@@H](CCCCN)C(=O)N[C@@H](Cc1ccccc1)C(=O)N[C@H](CC(C)C)C(=O)NCC(=O)N[C@@H](CCCNC(=N)N)C(=O)N[C@H](C(=O)N[C@@H](CC(C)C)C(N)=O)[C@@H](C)CC)C(C)C [Compound 2A, CH3(CH2)3CO-Phe-Val-Pro-Trp-Phe-Ser-Lys-Phe-DLeu-Gly-Arg-Ile-Leu-NH2] (Pentanoyl-FVPWFSKF[dL]GRIL-NH2) | 12.5 |  |  |  | 
2 | CCCCCCC(=O)NCCC[C@H](NC(=O)[C@H](CC(C)C)NC(=O)[C@@H](NC(=O)[C@H](CCCNC(=N)N)NC(=O)[C@@H](CCCCN)NC(=O)[C@@H](CC(C)C)NC(=O)[C@H](Cc1ccccc1)NC(=O)[C@H](CCCCN)NC(=O)[C@H](CO)NC(=O)[C@H](Cc1ccccc1)NC(=O)[C@H](Cc1c[nH]c2ccccc12)NC(=O)[C@@H]1CCCN1C(=O)[C@@H](NC(=O)[C@@H](N)Cc1ccccc1)C(C)C)[C@@H](C)CC)C(N)=O [E, H-Phe-Val-Pro-Trp-Phe-Ser-Lys-Phe-DLeu-DLys-Arg-Ile-Leu-Orn(NHCO(CH2)5CH3)-NH2] (H-FVPWFSKF[dL][dK]RIL[Orn](Heptanoyl)-NH2) | 25 |  |  |  | Antimicrobial activity (MIC) K. pneumoniae ATCC BAA-1705 ([2]; ATCC BAA-1705): 50 µM
3 | CCCCCCCCCCCCC(=O)N[C@@H](Cc1ccccc1)C(=O)N[C@H](C(=O)N1CCC[C@H]1C(=O)N[C@@H](Cc1c[nH]c2ccccc12)C(=O)N[C@@H](Cc1ccccc1)C(=O)N[C@@H](CO)C(=O)N[C@@H](CCCCN)C(=O)N[C@@H](Cc1ccccc1)C(=O)N[C@H](CC(C)C)C(=O)NCC(=O)N[C@@H](CCCNC(=N)N)C(=O)N[C@H](C(=O)N[C@@H](CC(C)C)C(N)=O)[C@@H](C)CC)C(C)C [Compound 5A, CH3(CH2)11CO-Phe-Val-Pro-Trp-Phe-Ser-Lys-Phe-DLeu-Gly-Arg-Ile-Leu-NH2] (Tridecanoyl-FVPWFSKF[dL]GRIL-NH2) |  | > 100 | > 100 | > 100 | 
4 | CC[C@H](C)[C@H](NC(=O)[C@H](CCCNC(=N)N)NC(=O)CNC(=O)[C@@H](CC(C)C)NC(=O)[C@H](Cc1ccccc1)NC(=O)[C@H](CCCCN)NC(=O)[C@H](CO)NC(=O)[C@H](Cc1ccccc1)NC(=O)[C@H](Cc1c[nH]c2ccccc12)NC(=O)[C@@H]1CCCN1C(=O)[C@@H](NC(=O)[C@@H](N)Cc1ccccc1)C(C)C)C(=O)N[C@@H](CC(C)C)C(N)=O [Compound 1A, H-Phe-Val-Pro-Trp-Phe-Ser-Lys-Phe-dLeu-Gly-Arg-Ile-Leu-NH2] (H-FVPWFSKF[dL]GRIL-NH2) |  | 50 | 50 | 6.25 | 
5 | CCCCCCCCCCC(=O)N[C@@H](Cc1ccccc1)C(=O)N[C@H](C(=O)N1CCC[C@H]1C(=O)N[C@@H](Cc1c[nH]c2ccccc12)C(=O)N[C@@H](Cc1ccccc1)C(=O)N[C@@H](CO)C(=O)N[C@@H](CCCCN)C(=O)N[C@@H](Cc1ccccc1)C(=O)N[C@H](CC(C)C)C(=O)NCC(=O)N[C@@H](CCCNC(=N)N)C(=O)N[C@H](C(=O)N[C@@H](CC(C)C)C(N)=O)[C@@H](C)CC)C(C)C [Compound 4A, CH3(CH2)9CO-Phe-Val-Pro-Trp-Phe-Ser-Lys-Phe-DLeu-Gly-Arg-Ile-Leu-NH2] (Undecanoyl-FVPWFSKF[dL]GRIL-NH2) |  | > 100 | > 100 | > 100 | 
6 | CCCCCCC(=O)N[C@@H](Cc1ccccc1)C(=O)N[C@H](C(=O)N1CCC[C@H]1C(=O)N[C@@H](Cc1c[nH]c2ccccc12)C(=O)N[C@@H](Cc1ccccc1)C(=O)N[C@@H](CO)C(=O)N[C@@H](CCCCN)C(=O)N[C@@H](Cc1ccccc1)C(=O)N[C@H](CC(C)C)C(=O)NCC(=O)N[C@@H](CCCNC(=N)N)C(=O)N[C@H](C(=O)N[C@@H](CC(C)C)C(N)=O)[C@@H](C)CC)C(C)C [Compound 3A, CH3(CH2)5CO-Phe-Val-Pro-Trp-Phe-Ser-Lys-Phe-DLeu-Gly-Arg-Ile-Leu-NH2] (Heptanoyl-FVPWFSKF[dL]GRIL-NH2) | 12.5 |  |  |  | 
7 | CCCCCCCCCCCCC(=O)N[C@@H](Cc1ccccc1)C(=O)N[C@H](C(=O)N1CCC[C@H]1C(=O)N[C@@H](Cc1c[nH]c2ccccc12)C(=O)N[C@@H](Cc1ccccc1)C(=O)N[C@@H](CO)C(=O)N[C@@H](CCCCN)C(=O)N[C@@H](Cc1ccccc1)C(=O)N[C@H](CC(C)C)C(=O)N[C@H](CCCCN)C(=O)N[C@@H](CCCNC(=N)N)C(=O)N[C@H](C(=O)N[C@@H](CC(C)C)C(N)=O)[C@@H](C)CC)C(C)C [Compound 5B, CH3(CH2)11CO-Phe-Val-Pro-Trp-Phe-Ser-Lys-Phe-DLeu-DLys-Arg-Ile-Leu-NH2] (Tridecanoyl-FVPWFSKF[dL][dK]RIL-NH2) |  | > 100 | > 100 | > 100 | 
8 | CN[C@H](CC(C)C)C(=O)N[C@H]1C(=O)N[C@@H](CC(N)=O)C(=O)N[C@H]2C(=O)N[C@H]3C(=O)N[C@H](C(=O)N[C@H](C(=O)O)c4cc(O)cc(O)c4-c4cc3ccc4O)[C@H](O)c3ccc(c(Cl)c3)Oc3cc2cc(c3O[C@@H]2O[C@H](CO)[C@@H](O)[C@H](O)[C@H]2O[C@H]2C[C@](C)(N)[C@H](O)[C@H](C)O2)Oc2ccc(cc2Cl)[C@H]1O [Vancomycin] |  |  |  |  | MIC ([1]; Staphylococcus aureus, ATCC25923, read-out: Antimicrobial activity (MIC) S. aureus ATCC 25923): 2 µg/mL (≈ 1.38 µM); MIC [4]: 2 µg/mL (≈ 1.38 µM); MIC [5]: 1 µg/mL (≈ 0.69 µM); MIC [6]: 2 µg/mL (≈ 1.38 µM)
9 | CCCCCCCCCCC(=O)N[C@@H](Cc1ccccc1)C(=O)N[C@H](C(=O)N1CCC[C@H]1C(=O)N[C@@H](Cc1c[nH]c2ccccc12)C(=O)N[C@@H](Cc1ccccc1)C(=O)N[C@@H](CO)C(=O)N[C@@H](CCCCN)C(=O)N[C@@H](Cc1ccccc1)C(=O)N[C@H](CC(C)C)C(=O)N[C@H](CCCCN)C(=O)N[C@@H](CCCNC(=N)N)C(=O)N[C@H](C(=O)N[C@@H](CC(C)C)C(N)=O)[C@@H](C)CC)C(C)C [Compound 4B, CH3(CH2)9CO-Phe-Val-Pro-Trp-Phe-Ser-Lys-Phe-DLeu-DLys-Arg-Ile-Leu-NH2] (Undecanoyl-FVPWFSKF[dL][dK]RIL-NH2) |  | > 100 | > 100 | > 100 | 
10 | CCCCC(=O)NCCC[C@H](NC(=O)[C@H](CC(C)C)NC(=O)[C@@H](NC(=O)[C@H](CCCNC(=N)N)NC(=O)[C@@H](CCCCN)NC(=O)[C@@H](CC(C)C)NC(=O)[C@H](Cc1ccccc1)NC(=O)[C@H](CCCCN)NC(=O)[C@H](CO)NC(=O)[C@H](Cc1ccccc1)NC(=O)[C@H](Cc1c[nH]c2ccccc12)NC(=O)[C@@H]1CCCN1C(=O)[C@@H](NC(=O)[C@@H](N)Cc1ccccc1)C(C)C)[C@@H](C)CC)C(N)=O [D, H-Phe-Val-Pro-Trp-Phe-Ser-Lys-Phe-DLeu-DLys-Arg-Ile-Leu-Orn(NHCO(CH2)3CH3)-NH2] (H-FVPWFSKF[dL][dK]RIL[Orn](Pentanoyl)-NH2) | 25 |  |  |  | Antimicrobial activity (MIC) K. pneumoniae ATCC BAA-1705 ([2]; ATCC BAA-1705): 50 µM
